Laboratory results from PubChem BioAssay AID2060510 (Molecular Pharmacology Branch, DTP, NCI, 2025).

System: 439559-082-T-J2-PDC spheroids viability
Experiment: Anticancer human tumor 439559-082-T-J2-PDC patient-derived colon adenocarcinoma cell line growth inhibition [GQUAD]
Conditions: for IC50: curve of first compound; for viability, T/C: stronger effect = lower value
How it was run: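 Tumor cells were grown as complex spheroids with HUVEC endothelial cells and mesenchymal stem cells as stroma. G-quadruplex stabilizers were combined with targeted agents over half-log dilutions from near the clinical Cmax, or from 10 microM.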

[1] = second compound 0.0316 µM, first compound 0.0316 µM
[2] = second compound 0.0316 µM, first compound 0.1 µM
[3] = second compound 0.0316 µM, first compound 0.316 µM
[4] = second compound 0.0316 µM, first compound 1 µM
[5] = second compound 0.0316 µM, first compound 3.16 µM
[6] = second compound 0.0316 µM, first compound 10 µM
[7] = second compound 0.1 µM, first compound 0.0316 µM
[8] = second compound 0.1 µM, first compound 0.1 µM
[9] = second compound 0.1 µM, first compound 0.316 µM
[10] = second compound 0.1 µM, first compound 1 µM
[11] = second compound 0.1 µM, first compound 3.16 µM
[12] = second compound 0.1 µM, first compound 10 µM
[13] = second compound 0.316 µM, first compound 0.0316 µM
[14] = second compound 0.316 µM, first compound 0.1 µM
[15] = second compound 0.316 µM, first compound 0.316 µM
[16] = second compound 0.316 µM, first compound 1 µM
[17] = second compound 0.316 µM, first compound 3.16 µM
[18] = second compound 0.316 µM, first compound 10 µM
[19] = second compound 1 µM, first compound 0.0316 µM
[20] = second compound 1 µM, first compound 0.1 µM
[21] = second compound 1 µM, first compound 0.316 µM
[22] = second compound 1 µM, first compound 1 µM
[23] = second compound 1 µM, first compound 3.16 µM
[24] = second compound 1 µM, first compound 10 µM
[25] = second compound 3.16 µM, first compound 0.0316 µM
[26] = second compound 3.16 µM, first compound 0.1 µM
[27] = second compound 3.16 µM, first compound 0.316 µM
[28] = second compound 3.16 µM, first compound 1 µM
[29] = second compound 3.16 µM, first compound 3.16 µM
[30] = second compound 3.16 µM, first compound 10 µM
[31] = second compound 10 µM, first compound 0.0316 µM
[32] = second compound 10 µM, first compound 0.1 µM
[33] = second compound 10 µM, first compound 0.316 µM
[34] = second compound 10 µM, first compound 1 µM
[35] = second compound 10 µM, first compound 3.16 µM
[36] = second compound 10 µM, first compound 10 µM
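Note: spheroids exposed to the agents for 7 days before readout.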
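Throughout, for viability, T/C: percent of luminescence signal in DMSO vehicle wells taken as 100% viability.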

## C=CC(=O)N1CCN(c2nc(=O)n(-c3c(C)ccnc3C(C)C)c3nc(-c4c(O)cccc4F)c(F)cc23)C(C)C1 (stereo not drawn) + CN(C)c1ccc(Nc2c3ccc(NC(=O)CCN4CCCC4)cc3nc3cc(NC(=O)CCN4CCCC4)ccc23)cc1
Second compound 0.0316 µM
  IC50: > 10 µM
Second compound 0.1 µM
  IC50: > 10 µM
Second compound 0.316 µM
  IC50: > 10 µM
Second compound 1 µM
  IC50: > 10 µM
Second compound 3.16 µM
  IC50: > 10 µM
Second compound 10 µM
  IC50: > 10 µM
[1]
  viability, T/C: 103%
[2]
  viability, T/C: 91.4%
[3]
  viability, T/C: 93.6%
[4]
  viability, T/C: 104%
[5]
  viability, T/C: 111%
[6]
  viability, T/C: 95.4%
[7]
  viability, T/C: 105%
[8]
  viability, T/C: 92.2%
[9]
  viability, T/C: 104%
[10]
  viability, T/C: 97.6%
[11]
  viability, T/C: 111%
[12]
  viability, T/C: 104%
[13]
  viability, T/C: 104%
[14]
  viability, T/C: 102%
[15]
  viability, T/C: 91.6%
[16]
  viability, T/C: 114%
[17]
  viability, T/C: 106%
[18]
  viability, T/C: 110%
[19]
  viability, T/C: 112%
[20]
  viability, T/C: 96.3%
[21]
  viability, T/C: 105%
[22]
  viability, T/C: 97.6%
[23]
  viability, T/C: 120%
[24]
  viability, T/C: 108%
[25]
  viability, T/C: 94.8%
[26]
  viability, T/C: 103%
[27]
  viability, T/C: 108%
[28]
  viability, T/C: 108%
[29]
  viability, T/C: 114%
[30]
  viability, T/C: 108%
[31]
  viability, T/C: 103%
[32]
  viability, T/C: 96%
[33]
  viability, T/C: 96.8%
[34]
  viability, T/C: 106%
[35]
  viability, T/C: 109%
[36]
  viability, T/C: 100%

## CCc1c2c(nc3ccc(O)cc13)-c1cc3c(c(=O)n1C2)COC(=O)[C@]3(O)CC + CN(C)c1ccc(Nc2c3ccc(NC(=O)CCN4CCCC4)cc3nc3cc(NC(=O)CCN4CCCC4)ccc23)cc1
Second compound 0.0316 µM
  IC50: 0.163 µM
Second compound 0.1 µM
  IC50: 0.181 µM
Second compound 0.316 µM
  IC50: 0.207 µM
Second compound 1 µM
  IC50: 0.179 µM
Second compound 3.16 µM
  IC50: 0.196 µM
Second compound 10 µM
  IC50: 0.195 µM
Second compound 0.0316 µM, first compound 0.000999 µM
  viability, T/C: 99.7%
Second compound 0.0316 µM, first compound 0.00316 µM
  viability, T/C: 88.5%
Second compound 0.0316 µM, first compound 0.00999 µM
  viability, T/C: 72.7%
[1]
  viability, T/C: 70.1%
Second compound 0.0316 µM, first compound 0.0999 µM
  viability, T/C: 52.5%
[3]
  viability, T/C: 43.8%
Second compound 0.1 µM, first compound 0.000999 µM
  viability, T/C: 110%
Second compound 0.1 µM, first compound 0.00316 µM
  viability, T/C: 91%
Second compound 0.1 µM, first compound 0.00999 µM
  viability, T/C: 82.1%
[7]
  viability, T/C: 72.6%
Second compound 0.1 µM, first compound 0.0999 µM
  viability, T/C: 56.6%
[9]
  viability, T/C: 42.9%
Second compound 0.316 µM, first compound 0.000999 µM
  viability, T/C: 104%
Second compound 0.316 µM, first compound 0.00316 µM
  viability, T/C: 93.6%
Second compound 0.316 µM, first compound 0.00999 µM
  viability, T/C: 77.1%
[13]
  viability, T/C: 70.5%
Second compound 0.316 µM, first compound 0.0999 µM
  viability, T/C: 67.7%
[15]
  viability, T/C: 40.3%
Second compound 1 µM, first compound 0.000999 µM
  viability, T/C: 93.3%
Second compound 1 µM, first compound 0.00316 µM
  viability, T/C: 85.7%
Second compound 1 µM, first compound 0.00999 µM
  viability, T/C: 85.8%
[19]
  viability, T/C: 69.3%
Second compound 1 µM, first compound 0.0999 µM
  viability, T/C: 56.8%
[21]
  viability, T/C: 43.9%
Second compound 3.16 µM, first compound 0.000999 µM
  viability, T/C: 100%
Second compound 3.16 µM, first compound 0.00316 µM
  viability, T/C: 90%
Second compound 3.16 µM, first compound 0.00999 µM
  viability, T/C: 76.6%
[25]
  viability, T/C: 64.2%
Second compound 3.16 µM, first compound 0.0999 µM
  viability, T/C: 61.5%
[27]
  viability, T/C: 43.2%
Second compound 10 µM, first compound 0.000999 µM
  viability, T/C: 106%
Second compound 10 µM, first compound 0.00316 µM
  viability, T/C: 79%
Second compound 10 µM, first compound 0.00999 µM
  viability, T/C: 80.8%
[31]
  viability, T/C: 75.4%
Second compound 10 µM, first compound 0.0999 µM
  viability, T/C: 59.6%
[33]
  viability, T/C: 41.7%

## Cc1cccc(N(C)C(=O)C2C(O)CCN2c2nc(C)cc(C(F)(F)F)c2C#N)c1 (stereo not drawn) + CN(C)c1ccc(Nc2c3ccc(NC(=O)CCN4CCCC4)cc3nc3cc(NC(=O)CCN4CCCC4)ccc23)cc1
Second compound 0.0316 µM
  IC50: > 10 µM
Second compound 0.1 µM
  IC50: > 10 µM
Second compound 0.316 µM
  IC50: > 10 µM
Second compound 1 µM
  IC50: > 10 µM
Second compound 3.16 µM
  IC50: > 10 µM
Second compound 10 µM
  IC50: > 10 µM
[1]
  viability, T/C: 102%
[2]
  viability, T/C: 87.8%
[3]
  viability, T/C: 97.3%
[4]
  viability, T/C: 89.8%
[5]
  viability, T/C: 94.5%
[6]
  viability, T/C: 99.5%
[7]
  viability, T/C: 109%
[8]
  viability, T/C: 100%
[9]
  viability, T/C: 94.6%
[10]
  viability, T/C: 92.1%
[11]
  viability, T/C: 95.5%
[12]
  viability, T/C: 109%
[13]
  viability, T/C: 84.5%
[14]
  viability, T/C: 98.7%
[15]
  viability, T/C: 101%
[16]
  viability, T/C: 96.7%
[17]
  viability, T/C: 95.2%
[18]
  viability, T/C: 94.3%
[19]
  viability, T/C: 96.4%
[20]
  viability, T/C: 102%
[21]
  viability, T/C: 97.5%
[22]
  viability, T/C: 99.3%
[23]
  viability, T/C: 96.6%
[24]
  viability, T/C: 93.9%
[25]
  viability, T/C: 112%
[26]
  viability, T/C: 93.5%
[27]
  viability, T/C: 101%
[28]
  viability, T/C: 89.7%
[29]
  viability, T/C: 107%
[30]
  viability, T/C: 92.1%
[31]
  viability, T/C: 93.6%
[32]
  viability, T/C: 87.1%
[33]
  viability, T/C: 100%
[34]
  viability, T/C: 102%
[35]
  viability, T/C: 94%
[36]
  viability, T/C: 91.8%

## O=C(c1cc(Cc2n[nH]c(=O)c3ccccc23)ccc1F)N1CCN(C(=O)C2CC2)CC1 + CN(C)c1ccc(Nc2c3ccc(NC(=O)CCN4CCCC4)cc3nc3cc(NC(=O)CCN4CCCC4)ccc23)cc1
Second compound 0.0316 µM
  IC50: > 10 µM
Second compound 0.1 µM
  IC50: > 10 µM
Second compound 0.316 µM
  IC50: > 10 µM
Second compound 1 µM
  IC50: > 10 µM
Second compound 3.16 µM
  IC50: > 10 µM
Second compound 10 µM
  IC50: > 10 µM
[1]
  viability, T/C: 101%
[2]
  viability, T/C: 92.1%
[3]
  viability, T/C: 102%
[4]
  viability, T/C: 99.6%
[5]
  viability, T/C: 94.4%
[6]
  viability, T/C: 95.5%
[7]
  viability, T/C: 101%
[8]
  viability, T/C: 96.6%
[9]
  viability, T/C: 99.2%
[10]
  viability, T/C: 97.9%
[11]
  viability, T/C: 101%
[12]
  viability, T/C: 87.3%
[13]
  viability, T/C: 96.2%
[14]
  viability, T/C: 104%
[15]
  viability, T/C: 98.5%
[16]
  viability, T/C: 96.2%
[17]
  viability, T/C: 100%
[18]
  viability, T/C: 90.8%
[19]
  viability, T/C: 98.3%
[20]
  viability, T/C: 95.1%
[21]
  viability, T/C: 95.3%
[22]
  viability, T/C: 97.6%
[23]
  viability, T/C: 98.5%
[24]
  viability, T/C: 107%
[25]
  viability, T/C: 103%
[26]
  viability, T/C: 99.7%
[27]
  viability, T/C: 94.9%
[28]
  viability, T/C: 101%
[29]
  viability, T/C: 99.1%
[30]
  viability, T/C: 99.7%
[31]
  viability, T/C: 105%
[32]
  viability, T/C: 96.8%
[33]
  viability, T/C: 104%
[34]
  viability, T/C: 93%
[35]
  viability, T/C: 108%
[36]
  viability, T/C: 94.9%
